According to patent US20230390192A1, “GASTRO RETENTIVE DOSAGE FORMS COMPRISING DEUTETRABENAZINE” (AUSPEX PHARMACEUTICALS, INC., priority 2020, published 2023):

Columns and labels:
[1] = Deutetrabenazine/deuHTBZ Cmax ratio in humans; assay type: in vivo
[2] = in vivo; cited from earlier work
Human [14C]-AME study = conditions: humans, dosed as powder in capsule (PIC)
[3] = Drug solubility at different pH
[4] = Rat perfusion model, intestinal permeability/absorption
[5] = Single-dose partial crossover comparative bioavailability study in dogs
Experimental: The trial was conducted as an open-label, randomized, single-dose, partial crossover comparative bioavailability study. The study was designed to determine the AUC0-t, AUC0-24, Cmax and Tmax of deutetrabenazine and total deuterated α- and β-dihydrotetrabenazine (deuHTBZ) metabolites. The sample group consisted of 4 male beagle dogs. Each dog was administered two treatments. […] A washout period of 14 days was kept before crossing over to the next treatment. Each dog was administered a single oral dose with 10 ml water. Prior to each dose administration, the dogs were pretreated with pentagastrin (to stimulate gastric acid secretion.
Blood samples were collected before dosing and at predetermined time points through 24 hours post-dosing. The samples were analyzed for deutetrabenazine and total deuHTBZ in plasma using an LC-MS/MS method.

[6] = Particle size distribution by laser diffractometry (Mastersizer 3000); assay type: physicochemical; conditions: drug substance, dry measurement
Text: As used herein, the term “particle size distribution” refers to the statistical distribution of the volume share related of all particle sizes and is represented by D90, D50 or D10 values. The D90 value of the integral volume distribution is defined in the context of this invention as the particle diameter, at which 90 percent by volume of the particles have a smaller diameter than the diameter, which corresponds to the D90 value. For example, a D90 of 15 μm, means that 90% (by volume) of the particles have a diameter less than or equal to 15 μm. A D50 of 10 μm, means that 50% (by volume) of the particles have a diameter less than or equal to 10 μm. A D10 of 3 μm, means that 10% (by volume) of the particles have a diameter less than or equal to 3 μm. Particle size distribution is determined by means of laser diffractometry. More specifically, the particle size distribution is determined using a Mastersizer 3000 from Malvern Instruments.
The deutetrabenazine particle size distributions following manufacture (untreated), milling (quadro co-mill) and micronization (air jet mill) are shown in Table 1.
For dry measurement of the milled and unmilled deutetrabenazine the following settings are preferably used: […]

| D10 [6] | D50 [6] | D90 [6] | SMILES | deutetrabenazine/deuHTBZ Cmax ratio [1] | half-life of active metabolites relative to tetrabenazine [2] | radioactive dose recovered in urine (Human [14C]-AME study) | solubility ([3]; acidic environment (pH<4)) | solubility ([3]; pH ≥4) | permeability through the small intestinal (SI) segments ([4]; rat perfusion model) | levels of absorption in the lower GI (rank order of segments) ([4]; rats) | ileum absorption ([4]; rats, lower GI) | deutetrabenazine/deuHTBZ Cmax ratio [5] |
| --- | --- | --- | --- | --- | --- | --- | --- | --- | --- | --- | --- | --- |
|  |  |  | [2H]C([2H])([2H])Oc1cc2c(cc1OC([2H])([2H])[2H])[C@H]1CC(=O)[C@H](CC(C)C)CN1CC2 [Deutetrabenazine, (RR,SS)-1,3,4,6,7,11b-hexahydro-9,10-di(methoxy-D3)-3-(2-methylpropyl)-2H-benzo[a]quinolizin-2-one] | < 1% | increased | approximately 80% | relatively good solubility | < 2.3 mg/mL | permeable | Jejunum<Mid-small intestine<Colon<Ileum | about 0.0006 cm/sec | about 10% |
| 6.11 μm | 33.55 μm | 131.55 μm | [2H]C([2H])([2H])Oc1cc2c(cc1OC([2H])([2H])[2H])C1CC(=O)C(CC(C)C)CN1CC2 (stereo not drawn) [co-milled, deutetrabenazine] |  |  |  |  |  |  |  |  |  |
| 1.08 μm | 3.31 μm | 7.05 μm | [2H]C([2H])([2H])Oc1cc2c(cc1OC([2H])([2H])[2H])C1CC(=O)C(CC(C)C)CN1CC2 (stereo not drawn) [micro-milled, deutetrabenazine] |  |  |  |  |  |  |  |  |  |
| 9.08 μm | 59.66 μm | 213.07 μm | [2H]C([2H])([2H])Oc1cc2c(cc1OC([2H])([2H])[2H])C1CC(=O)C(CC(C)C)CN1CC2 (stereo not drawn) [unmilled, deutetrabenazine] |  |  |  |  |  |  |  |  |  |
